Type in all cases: biochemical, bovine
The target of experiment [1] is T1, BSA–fructose (Fru) system (Bos taurus, UniProt P02769). The experiment is described as follows: Total carbonyl and thiol group content of glycated BSA. The note with it: 0.200 mg mL^−1. On the procedure:
A reported method was adopted and a slight modification was made to determine the protein carbonyl group content (PCO). Briefly, 100 μL of native BSA solution or sample solution acquired in Section 2.4.1 was incubated with DNPH solution (400 μL, 10 mM, dissolved in 2.0 M HCl) for 1 h at room temperature, with vortexing every 10 min. The sample solution without DNPH was regarded as the blank group. Then, 1000 μL of trichloroacetic acid (TCA) solution (20% (w/v)) was added, and the resulting mixture was kept at 277 K for 10 min, followed by centrifugation (10,000 rpm, 10 min, 277 K). The residue was extracted with ethanol/ethyl acetate (1:1, v/v) three times, and subsequently suspended and mixed thoroughly in 1000 μL of guanidine hydrochloride (6.0 M, pH 6.6), followed by incubating at 310 K for 15 min. The UV absorbance was recorded at 370 nm on an Infinite® M200 PRO plate reader (Tecan, Männedorf, Switzerland). The total protein carbonyl group content was calculated using the following equation:(4) PCO(nmol/mg protein)=Asample−AblankVreaction/ε1dVsampleCpro×1000 where Asample and Ablank are the absorbances of a tested sample with or without DNPH, respectively. ε1 represents the absorption coefficient of 22,000 M^−1cm^−1, and d is the cuvette length (0.5 cm). […]
The content of the free SH group was assessed using Ellman’s method with slight changes. […]

Experiment [2] deals with T1, BSA–fructose (Fru) system. The experiment is described as follows: Anti-glycation: glycation products in BSA–Fru system. The note with it: 0.200 mg mL^−1; end stage. On the procedure: Considering that Monascus pigments (MPs) are usually applied in the form of a mixture, the extract of Monascus-fermented rice (a high content of six known Monascus pigments, Figure S2) was selected to evaluate the anti-glycation capacity of MPs in a reaction in vitro using BSA as a model protein glycation by Fru. Briefly, BSA and Fru were dissolved in PBS solution of pH 7.4, and their final concentrations were 10.0 mg mL^−1 and 0.5 M, respectively. Then, a series of MPs were added into the above system with final concentrations of 0.005, 0.025, 0.050, 0.100, 0.150, and 0.200 mg mL^−1. After filtered through a sterile 0.22 μm membrane, the reaction mixture was incubated at 323 K for 24 h. The glycosylation products, namely fructosamine (in the early stage), α-dicarbonyl compounds (in the middle stage), and fluorescent AGEs (in the end stage), were detected according to our previous report. Here, AG was a positive control.

Experiment [3] deals with T1, BSA–fructose (Fru) system. The experiment is described as follows: Structural analysis of glycated BSA (CD, ThT cross-β structure). The protocol:
The changes in the secondary structures of the proteins were determined using the CD spectroscopy method on a New MOS-450 spectropolarimeter (Biologic, Seyssinet-Pariset, France). The spectra were collected over the far-UV range of 200–260 nm using a quartz cell (with an inner diameter of 1 mm) under an atmosphere of nitrogen at room temperature. Each spectrum was the average of at least three consecutive scans at a scan speed of 100 nm min^−1 with a bandwidth of 1 nm, and it was corrected for the buffer signal. The proportion of different secondary structures was calculated using the online CONTIN program (http://dichroweb.cryst.bbk.ac.uk/html/home.shtml, accessed on 4 April 2023).
The secondary structure contents of BSA before and after glycosylation were determined using CD measurement referring to the experimental procedure in Section 2.3.2.
As a popular fluorescent probe for protein aggregation, thioflavin T (ThT) was used for the detection of the amyloid β-structure of glycated BSA [29, 30]. The samples were treated with ThT (a final concentration of 0.016 mg mL^−1) at room temperature for 1 h in the dark. The ThT fluorescence intensity (excitation: 435 nm; emission: 485 nm) of the sample was recorded on a spectrofluorometer.

Experiment [4] addresses T1, BSA–fructose (Fru) system. The experiment is described as follows: Surface hydrophobicity of glycated BSA (BPB, ANS).

We go through one compound from PMC11120408 (Foods, 2024).

SMILES strings stand for the structures.

T1 sequence (P02769 25-607): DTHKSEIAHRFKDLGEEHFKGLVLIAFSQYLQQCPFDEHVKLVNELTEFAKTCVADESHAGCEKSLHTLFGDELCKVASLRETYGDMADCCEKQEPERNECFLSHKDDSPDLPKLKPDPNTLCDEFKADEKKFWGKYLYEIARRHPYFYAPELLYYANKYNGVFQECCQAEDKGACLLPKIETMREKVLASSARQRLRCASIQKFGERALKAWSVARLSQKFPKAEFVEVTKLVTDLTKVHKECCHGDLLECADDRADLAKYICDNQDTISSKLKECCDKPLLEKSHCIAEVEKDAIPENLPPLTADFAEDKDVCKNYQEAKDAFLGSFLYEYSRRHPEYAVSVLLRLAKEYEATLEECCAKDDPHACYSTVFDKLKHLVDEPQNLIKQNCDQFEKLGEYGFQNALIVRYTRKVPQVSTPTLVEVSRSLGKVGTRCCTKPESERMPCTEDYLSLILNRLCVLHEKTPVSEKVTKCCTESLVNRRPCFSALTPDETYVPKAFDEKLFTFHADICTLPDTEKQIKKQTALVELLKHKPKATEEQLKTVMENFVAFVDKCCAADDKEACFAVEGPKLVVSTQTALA

As for `N=C(N)NN` [AG, aminoguanidine], in experiment [1] (glycated BSA 2.3, native BSA 3.6), the “free SH group content of glycated BSA after treatment” value amounted to 2.7 µmol/g. In experiment [1] (glycated BSA 35.6, native BSA 2.5), the “carbonyl group content of glycated BSA after treatment” value stood at 15.7 nmol/mg. For the same compound, in experiment [2], the “inhibition rate of fluorescent AGE formation” value amounted to 75.7%. Moreover, the figures for the “inhibition rate against generation of cross-β structure (ThT)” value in experiment [3] (0.005 mg mL^−1) and in experiment [3] (0.200 mg mL^−1) were 27.6% and 41.4%, respectively. Moreover, the “α-helical structure content of treated glycated BSA (CD)” value in experiment [3] (glycated BSA 47.8%, native BSA 67.6%) worked out at 58.3%. Further, the “change of ANS fluorescence intensity of glycated BSA” value in experiment [4] (ANS binding) is on record as “increased slightly”. For the same compound, the “change of BPB content bound to glycated BSA (surface hydrophobicity)” value in experiment [4] (BPB binding) is “increased”.
